Reference: patent US5648381A, “Derivatives of indan-1,3-dione and indan-1,2,3-trione, methods of preparing them and therapeutic use thereof” (Innothera, priority 1992, dated 1997)
pEC50: −log10 of the molar value. One block for each molecule: values may come before it.

Key:
[1] = Free radical trapping (DPPH) effect; conditions: in vitro, DPPH model
Description: (§1) In the in vitro test, the compounds were solubilised in aqueous solution, either pure or containing DMSO or alcohol.
The overall "free radical trapping" effect was studied in vitro in a model using 1,1-diphenyl-2-picrylhydrazyl (DPPH) as stable free radical, the method being derived from that described by Lamaison et al., Plantes Medic. et phytotheraphie, XXII, 1988, 231-234.

[2] = system: basic venous tone of the rat; assay: Basic venous tone and arterial pressure in vivo (normal and after cardiac arrest); conditions: 1 to 3 picomols intravenously
Method: (§2) In the in vivo test, the products were administered intravenously in the form of a pure aqueous solution or intraperitoneally in the form of an aqueous solution optionally containing DMSO or orally in solution or in suspension in carboxymethyl cellulose or in a composite aqueous solution containing Tween® and DMSO in certain cases.
In vivo, the arterial and venous pressure was measured under normal conditions and after cardiac arrest. During cardiac arrest, the venous tone was calculated from the venous and arterial pressure measured at equilibrium and corrected in dependence on the relative differences in compliance between these two networks (Samar and Coleman, Am. J. Physiol., 1978, 234:H94-100; Yamamoto et al., Am. J. Physiol., 1980, 238:H823-828).

saphena veins of rabbits = assay: Contraction of isolated saphena veins produced by depolarisation (KCl, hyperpotassic solution); conditions: KCl 40 mM, compound 10 nM to 30 μM, rabbit; for pEC50: Oryctolagus cuniculus, read-out: ED50 for increase in contractions of the saphena veins produced by KCl
Method: as §1
The contractile effect was measured in vitro:
by the contractile force exerted by vascular rings, either quiescent or stimulated (electrically or by physiological agents) and maintained under isometric conditions, and
The formula (A) compounds and their salts, if any, increase the contraction of animal saphena veins produced by noradrenalin and depolarisation (hyperpotassic solution) without in most cases affecting the arterial contractile responses. For example, 2-hydroxy-2-(2-methoxybenzoyl hydrazino)-indan-1,3-dione and the compound in Example 22 (10 nM to 30 μM) produce a more than 50% increase (ED50 ±0.3 microM) in contractions of the saphena veins of rabbits produced by KCl (40 mM).

[3] = Toxicity, single oral administration to the mouse; assay type: in vivo; conditions: 1 g/kg
Description: The formula (A) compounds and their salts if any have very low toxicity.

[4] = system: oedema and leucocyte migration in the pleural cavity; assay: Carrageenin-induced pleurisy in the rat; assay type: in vivo; conditions: intraperitoneally twice 20 mg/kg, six hours after carrageenin
Method: as §2
The compounds in Examples 1, 3 and 11 and 2-hydroxy-2-(3-methoxybenzoyl hydrazino)-indan-1,3-dione reduce vascular permeability by 10 to 50% when measured one to two hours after intraperitoneal administration of 5-20 mg/kg and 2 to 4 hours after oral administration of 5-20 mg/kg to the rat. The compound in Example 9 and 2-isonicotinoyl hydrazonoindan-1,3-dione, administered intraperitoneally twice in doses of 20 mg/kg, inhibit oedema and leucocyte migration in the pleural cavity, six hours after injection of carrageenin in the model of pleurisy in the rat.

Compound: COc1ccc2c(=O)c(=NNc3cccc(F)c3)c(=O)c2c1 [2-(3-fluorophenyl hydrazono)-5-methoxyindan-1,3-dione]
maximum anti-radical effect [1]: more than 95%

Compound: Cc1ccccc1C(=O)NNC1(O)C(=O)c2ccccc2C1=O [Example 6, 2-hydroxy-2-(2-methylbenzoylhydrazino)-indan-1,3-dione]
effect on arterial pressure [2]: without affecting the arterial pressure
increase in the basic venous tone [2]: more than 20%

pEC50 (saphena veins of rabbits): ~6.52
Compound: COc1ccccc1C(=O)NNC1(O)C(=O)c2ccccc2C1=O [2-hydroxy-2-(2-methoxybenzoyl hydrazino)-indan-1,3-dione]
increase in contractions of the saphena veins produced by KCl (saphena veins of rabbits): more than 50%

Compound: COc1ccc(C(=O)NNC2(O)C(=O)c3ccccc3C2=O)cc1OC [Example 11, 2-(3,4-dimethoxybenzoylhydrazino)-2-hydroxyindan-1,3-dione]
effect on arterial pressure [2]: without affecting the arterial pressure
increase in the basic venous tone [2]: more than 20%

Compound: O=c1c(=NNc2ccccc2)c(=O)c2ccccc12 [2-phenyl hydrazonoindan-1,3-dione]
deaths [3]: no deaths
observed effects ([3]; in certain cases): coloured diarrhoea and coloured urine

Compound: O=C(NN=c1c(=O)c2ccccc2c1=O)c1ccncc1 [2-isonicotinoyl hydrazonoindan-1,3-dione]
inhibition of leucocyte migration in the pleural cavity [4]: inhibit
inhibition of oedema [4]: inhibit

Compound: O=C(NNC1(O)C(=O)c2ccccc2C1=O)c1ccccc1O [Example 9, 2-hydroxy-2-(2-hydroxybenzoylhydrazino)-indan-1,3-dione]
inhibition of leucocyte migration in the pleural cavity [4]: inhibit
inhibition of oedema [4]: inhibit
maximum anti-radical effect [1]: more than 95%

Compound: O=C(NNC1(O)C(=O)c2ccccc2C1=O)c1ccccc1 [Example 3, 2-benzoyl hydrazino-2-hydroxy-indan-1,3-dione]
increase in the basic venous tone [2]: more than 20%

pEC50 (saphena veins of rabbits): ~6.52
Compound: COC(=O)NN=c1c(=O)c2ccccc2c1=O [Example 22, 2-methoxycarbonyl hydrazonoindan-1,3-dione]
increase in contractions of the saphena veins produced by KCl (saphena veins of rabbits): more than 50%
